Laboratory results: PMC6131539, “Behavioral Effects of a Potential Novel TAAR1 Antagonist” (Frontiers in Pharmacology, 2018)

Legend:
[1] = system: VTA dopamine neurons; assay: Electrophysiology: spontaneous firing of VTA dopamine neurons in slices; assay type: cell-based, C57Bl/6J mice; settings: 100 μM, bath applied 5 min; percentage of baseline
Procedure: All electrophysiological recordings were performed in slice preparations from C57Bl/6J mice (P21-P30). Briefly, mice were anaesthetized with isoflurane and transcardially perfused with an ice-cold sucrose solution containing (in mM): 50 sucrose, 26.2 NaHCO3, 1.25 glucose, 4.9 MgCl2, 3 kynurenic acid, 0.1 CaCl2, and 1.32 ascorbic acid in bicarbonate-buffered solution (aCSF, described below). Mice were then decapitated and brains were extracted. […] Cells were visualized on an upright microscope using “Dodt-type” gradient contrast infrared optics ([Dodt et al., 2002]) and whole-cell recordings were made using a MultiClamp 700B amplifier (Axon Instruments, Union City, CA, United States). Recording electrodes (3–5 MΩ) were filled with (in mM): 136 potassium-D-gluconate, 4 MgCl2, 1.1 HEPES, 5, EGTA, 10 sodium creatine phosphate, 3.4 Mg-ATP, and 0.1 Na2GTP. […] Spontaneous firing activity was recorded in current-clamp mode. […] Firing data for all neurons was analyzed with the MiniAnalysis program (Synaptosoft) using the same criteria. Drug-induced changes in firing are expressed as a percentage of baseline. Drug effects were calculated by comparing the response during the baseline/pre-drug period to the response 5 min after onset of drug administration. […] We therefore assessed the effects of compound 22 on firing rate of dopamine neurons. […]

[2] = system: TAAR1-KO mice; assay: Basal locomotor activity in TAAR1-KO mice; assay type: in vivo; settings: 5 and 25 mg/kg alone, 60 min
Procedure: The Taarl^-/- (TAAR1-KO) mice were obtained from Lundbeck ([Wolinsky et al., 2007]). All wild type (WT) and TAAR1-KO mice used for experiments were generated from TAAR1-KO heterozygous mice in a C57BL/6J x 129S1/Sv mixed background. Experimentally naïve mice, of at least 12 weeks of age, were used for all behavioral experiments. The mice were randomly assigned to treatment or control groups, balanced by sex and weight. Locomotor activity was assessed using the automated locomotor analysis monitors (Omnitech Electronics, Columbus, OH, United States). The apparatus included four open field monitors. Each Open Field monitor consisted of sets of 16 light beams arrayed in the horizontal X and Y axes. The hardware detected beams broken by the animal, which allowed the software to determine the location of the mouse in the cage. Total distance covered by mice was used to characterize locomotor activity of the animals. The monitors were divided into four compartments (20 cm × 20 cm). Animals were tested individually for defined periods with 5-min intervals. The mice were first weighed and then placed into the apparatus, allowing for 30 min habituation. […] The locomotor activity was then measured for additional 1 h. […] The locomotor activity was assessed for 60 min following the injection. […]

Clc1ccc(CNCc2ccc(Cn3cncn3)cc2)c(Cl)c1 [compound 22]
increase in firing rate of dopaminergic neurons from VTA [1]: 88%
effect on basal locomotor activity [2]: did not significantly alter
